How the values were obtained:
[1] = tested on: HCV replicon cells (1b); assay: Cell-based HCV replicon assay (replicon RNA level by Taqman real time PCR); conditions: HCV 1b replicon, cells harvested on day 3
Experimental: To measure cell-based anti-HCV activity of selected compounds of the present invention, replicon cells were seeded at 5000 cells/well in 96-well collagen I-coated Nunc plates in the presence of the test compound. […]. Cells were harvested on day 3 by the addition of 1× cell lysis buffer (Ambion cat #8721). The replicon RNA level was measured using real time PCR (Taqman assay). The amplicon was located in 5B. The PCR primers were: 5B.2F, […] (SEQ ID. NO. 1); 5B.2R, […] (SEQ ID. NO. 2); the probe sequence was FAM-labeled […] (SEQ ID. NO. 3). GAPDH RNA was used as endogenous control and was amplified in the same reaction as NSSB (multiplex PCR) using primers and VIC-labeled probe recommended by the manufacturer (PE Applied Biosystem). The real-time RT-PCR reactions were run on ABI PRISM 7900HT Sequence Detection System using the following program: 48° C. for 30 minutes, 95° C. for 10 minutes, 40 cycles of 95° C. for 15 sec, 60° C. for 1 minute. The ACT values (CT5B−CTGAPDH) were plotted against the concentration of test compound and fitted to the sigmoid dose-response model using XLfit4 (MDL). […]; Alternatively, to quantitate the absolute amount of replicon RNA, a standard curve was established by including serially diluted T7 transcripts of replicon RNA in the Taqman assay. All Taqman reagents were from […] Applied Biosystems. Such an assay procedure was described in detail in e.g. Malcolm et al., Antimicrobial Agents and Chemotherapy 50: 1013-1020 (2006).

[2] = tested on: replicon cells (1b-Con1); assay: Replicon activity assay (1b-Con1 replicon cells, real-time RT-PCR); assay type: cell-based, HCV; conditions: three days post-dosing
[3] = tested on: replicon cells; assay: Cytotoxicity in replicon cells (MTS assay); conditions: CC50, MTS assay, three days post dosing
[4] = biological target: T1, HCV NS5B RNA-dependent RNA polymerase (1b-BKΔ55) (Hepatitis C virus genotype 1b, UniProt P26663); assay: Inhibition of HCV NS5B polymerase by nucleoside triphosphate analogs (radiolabeled nucleotide incorporation assay); assay type: biochemical
T1 construct: 5 nM NS5B (1b-BKΔ55) enzyme
T1 sequence (P26663 2420-2955 limits assumed, stated change not applied): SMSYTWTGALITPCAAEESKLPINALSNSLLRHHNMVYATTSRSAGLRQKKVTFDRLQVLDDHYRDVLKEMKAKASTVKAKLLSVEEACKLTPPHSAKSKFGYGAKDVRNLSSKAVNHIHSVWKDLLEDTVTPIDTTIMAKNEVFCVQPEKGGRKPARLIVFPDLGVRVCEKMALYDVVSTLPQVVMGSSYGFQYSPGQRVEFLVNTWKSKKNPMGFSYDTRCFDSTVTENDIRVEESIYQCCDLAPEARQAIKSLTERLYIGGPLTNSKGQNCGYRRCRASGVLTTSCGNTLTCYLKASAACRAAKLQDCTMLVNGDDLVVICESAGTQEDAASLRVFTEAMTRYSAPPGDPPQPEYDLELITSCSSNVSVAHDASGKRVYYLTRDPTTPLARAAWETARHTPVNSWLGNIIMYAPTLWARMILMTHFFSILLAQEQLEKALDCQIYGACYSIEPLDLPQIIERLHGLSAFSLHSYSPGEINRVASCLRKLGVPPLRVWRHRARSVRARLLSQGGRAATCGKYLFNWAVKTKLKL

[5] = tested on: Replicon (1a); assay: microbe, parasite or virus in culture; assay type: cell-based, HCV; conditions: Hepatitis C virus; 1a replicon, marked (1a) in the cell

CCOc1nc(N)nc2c1ncn2[C@@H]1O[C@H](COP(=O)(N[C@@H](C)C(=O)OC(C)C)Oc2ccccc2)[C@@H](O)[C@@]1(C)C#N (stereo partly shown) [Compound 10]
EC50 ([1]; Hepatitis C virus, 72 h): 15 µM

C[C@@]1(C#N)[C@@H]2OP(=O)(OC3CCC3)OC[C@H]2O[C@H]1n1ccc(N)nc1=O (stereo partly shown) [Compound 27]
EC50 ([1]; Hepatitis C virus, 72 h): > 100 µM

CCOC(=O)[C@H](C)NP(=O)(OC[C@H]1O[C@@H](n2cnc3c(OCC)nc(N)nc32)[C@](C)(C#N)[C@@H]1O)Oc1ccc(Cl)cc1 (stereo partly shown) [Compound 12]
EC50 ([1]; Hepatitis C virus, 72 h): 1.7 µM

CC(C)OP1(=O)OC[C@H]2O[C@@H](n3ccc(=O)[nH]c3=O)[C@](C)(C#N)[C@@H]2O1 (stereo partly shown)
EC50 ([2]; Hepatitis C virus, 72 h): 1300 nM | Cytotoxicity [3]: >100 µM

CCCCOC(=O)[C@H](C)NP(=O)(OC[C@H]1O[C@@H](n2ccc(=O)[nH]c2=O)[C@](C)(C#N)[C@@H]1O)Oc1cccc2ccccc12 (stereo partly shown) [Compound 18]
EC50 ([1]; Hepatitis C virus, 72 h): 1 µM

CCOC(=O)[C@H](C)NP(=O)(OC[C@H]1O[C@@H](n2cnc3c(OCC)nc(N)nc32)[C@](C)(C#N)[C@@H]1O)Oc1ccccc1 (stereo partly shown) [Compound 8]
EC50 ([1]; Hepatitis C virus, 72 h): 11.7 µM

CCOc1nc(N)nc2c1ncn2[C@@H]1O[C@H](COP(=O)(N[C@@H](C)C(=O)OCC(C)(C)C)Oc2ccccc2)[C@@H](O)[C@@]1(C)C#N (stereo partly shown) [Compound 9]
EC50 ([1]; Hepatitis C virus, 72 h): 0.7 µM

CCOc1nc(N)nc2c1ncn2[C@@H]1O[C@H](COP(=O)(N[C@@H](C)C(=O)OC)Oc2ccccc2)[C@@H](O)[C@@]1(C)C#N (stereo partly shown) [Compound 6]
EC50 ([1]; Hepatitis C virus, 72 h): 1.4 µM

CCCCOC(=O)[C@H](C)NP(=O)(OC[C@H]1O[C@@H](n2ccc(=O)[nH]c2=O)[C@](C)(C#N)[C@@H]1O)Oc1cccc2ccccc12 (stereo partly shown) [drawing 354]
EC50 ([2]; Hepatitis C virus, 72 h): 2700 nM | Cytotoxicity [3]: >100 µM

CC(=O)Nc1ccn([C@@H]2O[C@H](CO)[C@@H](O)[C@@]2(C)C#N)c(=O)n1 [Compound 1]
EC50 ([1]; Hepatitis C virus, 72 h): 14 µM

COC(=O)[C@H](C)NP(=O)(OC[C@H]1O[C@@H](n2ccc(=O)[nH]c2=O)[C@](C)(C#N)[C@@H]1O)Oc1ccccc1 (stereo partly shown) [Compound 14]
EC50 ([1]; Hepatitis C virus, 72 h): 11 µM

CCOC(=O)[C@H](C)NP(=O)(OC[C@H]1O[C@@H](n2ccc(=O)[nH]c2=O)[C@](C)(C#N)[C@@H]1O)Oc1ccccc1 (stereo partly shown) [Compound 16]
EC50 ([1]; Hepatitis C virus, 72 h): 51 µM

CC(C)OC(=O)[C@H](C)NP(=O)(OC[C@H]1O[C@@H](n2ccc(N)nc2=O)[C@](C)(C#N)[C@@H]1O)Oc1ccccc1 (stereo partly shown) [drawing 359]
EC50 ([2]; Hepatitis C virus, 72 h): 5200 nM | Cytotoxicity [3]: >100 µM

CCOc1nc(NC(C)=O)nc2c1ncn2[C@@H]1O[C@H](CO)[C@@H](O)[C@@]1(C)C#N [Compound 4]
EC50 ([1]; Hepatitis C virus, 72 h): 100 µM

COC(=O)[C@H](C)NP(=O)(OC[C@H]1O[C@@H](n2ccc(=O)[nH]c2=O)[C@](C)(C#N)[C@@H]1O)Oc1ccc(Cl)cc1 (stereo partly shown) [Compound 17]
EC50 ([1]; Hepatitis C virus, 72 h): 13 µM

C[C@@]1(C#N)[C@H](O)[C@@H](CO)O[C@H]1n1ccc(=O)[nH]c1=O [Compound 2, 1-[(2R,3R,4S,5R)-3-cyano-4-hydroxy-5-(hydroxymethyl)-3-methyloxolan-2-yl]-1,2,3,4-tetrahydropyrimidine-2,4-dione]
EC50 [1]: 12.6 µM

CCCCOC(=O)[C@H](C)NP(=O)(OC[C@H]1O[C@@H](n2cnc3c(OCC)nc(N)nc32)[C@](C)(C#N)[C@@H]1O)Oc1ccccc1 (stereo partly shown) [Compound 13]
EC50 ([1]; Hepatitis C virus, 72 h): 1.5 µM

C[C@@]1(C#N)[C@H](O)[C@@H](CO)O[C@H]1n1ccc(=O)[nH]c1=O [Compound 3]
EC50 [1]: > 66 µM

CCOc1nc(N)nc2c1ncn2[C@@H]1O[C@@H]2COP(=O)(OC3CCC3)O[C@H]2[C@@]1(C)C#N (stereo partly shown)
EC50 ([2]; Hepatitis C virus, 72 h): 1200 nM | Cytotoxicity [3]: >100 µM

C[C@H](NP(=O)(OC[C@H]1O[C@@H](n2ccc(=O)[nH]c2=O)[C@](C)(C#N)[C@@H]1O)Oc1ccccc1)C(=O)O[C@H](C)c1ccccc1 (stereo partly shown)
EC50 ([2]; Hepatitis C virus, 72 h): 34000 nM | Cytotoxicity [3]: >100 µM

CCOc1nc(N)nc2c1ncn2[C@@H]1O[C@H](CO)[C@@H](O)[C@@]1(C)C#N [Compound 5]
EC50 ([1]; Hepatitis C virus, 72 h): > 100 µM

C[C@H](NP(=O)(OC[C@H]1O[C@@H](n2ccc(=O)[nH]c2=O)[C@](C)(C#N)[C@@H]1O)Oc1ccccc1)C(=O)OC1CCCCC1 (stereo partly shown)
EC50 ([2]; Hepatitis C virus, 72 h): 2400 nM

COc1nc(N)nc2c1ncn2[C@@H]1O[C@H](COP(=O)(N[C@@H](C)C(=O)OC(C)C)Oc2ccccc2OC(C)=O)[C@@H](O)[C@@]1(C)C#N (stereo partly shown)
EC50 ([2]; Hepatitis C virus, 72 h): 8900 nM | Cytotoxicity [3]: 15 µM

COc1nc(N)nc2c1ncn2[C@@H]1O[C@H](COP(=O)(N[C@@H](C)C(=O)OC(C)C)Oc2ccccc2)[C@@H](O)[C@@]1(C)C#N (stereo partly shown)
EC50 ([2]; Hepatitis C virus, 72 h): 2200 nM | Cytotoxicity [3]: >100 µM

C[C@H](NP(=O)(OC[C@H]1O[C@@H](n2ccc(=O)[nH]c2=O)[C@](C)(C#N)[C@@H]1O)Oc1ccccc1)C(=O)OCC(C)(C)C (stereo partly shown) [Compound 15]
EC50 ([1]; Hepatitis C virus, 72 h): 5 µM

CCC(NP(=O)(OC[C@H]1O[C@@H](n2cnc3c(OC)nc(N)nc32)[C@](C)(C#N)[C@@H]1O)Oc1ccccc1)C(=O)OC(C)C (stereo partly shown)
EC50 ([2]; Hepatitis C virus, 72 h): 2200 nM | Cytotoxicity [3]: >100 µM

CC(C)COC(=O)[C@H](C)NP(=O)(OC[C@H]1O[C@@H](n2ccc(N)nc2=O)[C@](C)(C#N)[C@@H]1O)Oc1ccccc1 (stereo partly shown)
EC50 ([2]; Hepatitis C virus, 72 h): 400 nM | Cytotoxicity [3]: 92 µM

CC(C)COC(=O)[C@H](C)NP(=O)(OC[C@H]1O[C@@H](n2ccc(=O)[nH]c2=O)[C@](C)(C#N)[C@@H]1O)Oc1ccccc1 (stereo partly shown) [drawing 360]
EC50 ([2]; Hepatitis C virus, 72 h): 1300 nM | Cytotoxicity [3]: >100 µM

CCCOC(=O)[C@H](C)NP(=O)(OC[C@H]1O[C@@H](n2cnc3c(OC)nc(N)nc32)[C@](C)(C#N)[C@@H]1O)Oc1ccccc1 (stereo partly shown)
EC50 ([2]; Hepatitis C virus, 72 h): 2100 nM

CC(C)COC(=O)[C@H](C)NP(=O)(OC[C@H]1O[C@@H](n2ccc(=O)[nH]c2=O)[C@](C)(C#N)[C@@H]1O)Oc1ccccc1 (stereo partly shown) [drawing 352]
EC50 [2]: 1400 nM | Cytotoxicity [3]: >100 µM

CCOP1(=O)OC[C@H]2O[C@@H](n3ccc(N)nc3=O)[C@](C)(C#N)[C@@H]2O1 (stereo partly shown) [Compound 25]
EC50 ([1]; Hepatitis C virus, 72 h): > 100 µM

CC(C)OP1(=O)OC[C@H]2O[C@@H](n3ccc(N)nc3=O)[C@](C)(C#N)[C@@H]2O1 (stereo partly shown) [Compound 23]
EC50 ([1]; Hepatitis C virus, 72 h): 6.7 µM

C[C@@]1(C#N)[C@H](O)[C@@H](COP(=O)(O)OP(=O)(O)OP(=O)(O)O)O[C@H]1n1ccc(N)nc1=O [Compound 29]
IC50 [4]: 500 nM

CCOc1nc(N)nc2c1ncn2[C@@H]1O[C@@H]2COP(=O)(OC(C)C)O[C@H]2[C@@]1(C)C#N (stereo partly shown) [Compound 28]
EC50 ([1]; Hepatitis C virus, 72 h): 2.7 µM

CCOC(=O)[C@H](C)NP(=O)(OC[C@H]1O[C@@H](n2ccc(=O)[nH]c2=O)[C@](C)(C#N)[C@@H]1O)Oc1ccc(Cl)cc1 (stereo partly shown) [Compound 19]
EC50 ([1]; Hepatitis C virus, 72 h): 15 µM

C[C@H](NP(=O)(OC[C@H]1O[C@@H](n2ccc(N)nc2=O)[C@](C)(C#N)[C@@H]1O)Oc1ccccc1)C(=O)OCC(C)(C)C (stereo partly shown) [Compound 22]
EC50 ([1]; Hepatitis C virus, 72 h): 18 µM

CC(C)OP1(=O)OC[C@H]2O[C@@H](n3ccc(N)nc3=O)[C@](C)(C#N)[C@@H]2O1 (stereo partly shown) [Compound 24]
EC50 [1]: 7.9 µM

CC(C)OC(=O)[C@H](C)NP(=O)(OC[C@H]1O[C@@H](n2ccc(N)nc2=O)[C@](C)(C#N)[C@@H]1O)Oc1ccccc1 (stereo partly shown) [drawing 363]
EC50 [5]: 900 nM | Cytotoxicity [3]: >100 µM

COC(=O)[C@H](C)NP(=O)(OC[C@H]1O[C@@H](n2ccc(N)nc2=O)[C@](C)(C#N)[C@@H]1O)Oc1ccccc1 (stereo partly shown) [Compound 21]
EC50 ([1]; Hepatitis C virus, 72 h): 25 µM

CC(C)OC(=O)[C@H](C)NP(=O)(OC[C@H]1O[C@@H](n2ccc(=O)[nH]c2=O)[C@](C)(C#N)[C@@H]1O)Oc1ccccc1 (stereo partly shown)
EC50 ([2]; Hepatitis C virus, 72 h): 8300 nM | Cytotoxicity [3]: >100 µM

C[C@@]1(C#N)[C@@H]2OP(=O)(Oc3ccccc3)OC[C@H]2O[C@H]1n1ccc(N)nc1=O (stereo partly shown) [Compound 26]
EC50 ([1]; Hepatitis C virus, 72 h): 62 µM

CCCCOC(=O)[C@H](C)NP(=O)(OC[C@H]1O[C@@H](n2cnc3c(OCC)nc(N)nc32)[C@](C)(C#N)[C@@H]1O)Oc1cccc2ccccc12 (stereo partly shown) [Compound 7]
EC50 ([1]; Hepatitis C virus, 72 h): 1 µM

CC(C)OC(=O)[C@H](C)NP(=O)(OC[C@H]1O[C@@H](n2ccc(=O)[nH]c2=O)[C@](C)(C#N)[C@@H]1O)Oc1ccccc1Cl (stereo partly shown) [Compound 30]
EC50 ([1]; Hepatitis C virus, 72 h): 571 µM

CCCCOC(=O)[C@H](C)NP(=O)(OC[C@H]1O[C@@H](n2ccc(N)nc2=O)[C@](C)(C#N)[C@@H]1O)Oc1cccc2ccccc12 (stereo partly shown) [Compound 20]
EC50 ([1]; Hepatitis C virus, 72 h): 16 µM

CCOC(=O)[C@H](C)NP(=O)(OC[C@H]1O[C@@H](n2cnc3c(OCC)nc(N)nc32)[C@](C)(C#N)[C@@H]1O)Oc1ccc(F)cc1 (stereo partly shown) [Compound 11]
EC50 ([1]; Hepatitis C virus, 72 h): 17 µM

Reference: US9150603B2, “2′-cyano substituted nucleoside derivatives and methods of use thereof useful for the treatment of viral diseases” (priority 2011, dated 2015)
